From patent publication US12252524B2, “GIP/GLP1 co-agonist compounds” (Eli Lilly and Company, priority 2018, dated 2025)
Numbered stars: 1 amine (or outer) side, 2 acyl side, 3 side chain; on linkers, the order of the positions; unused ones are H or OH. Square brackets hold non-standard residues; d marks the D form. Side chains are listed from the residue outwards. Peptide text beside a SMILES is read from it. * marks the point of attachment. C20 diacid = O=C(O)CCCCCCCCCCCCCCCCCCC(=O)*; C18 diacid = O=C(O)CCCCCCCCCCCCCCCCC(=O)*; γGlu = O=C(O)[C@H](CCC(=O)[*:2])N[*:1]; αMeL = CC(C)C[C@](C)(N)C(=O)O; AEEA = NCCOCCOCC(=O)O; Aib = CC(C)(N)C(=O)O

What was measured:
human Gcg receptor = target: T1, human Gcg receptor (Homo sapiens, UniProt P47871); assay: [125I]-Glucagon binding (SPA), human Gcg receptor; conditions: read-out: hGLcgR Ki, nM (SEM, n)
T1 construct: expressed in transfected cells; crude membranes
T1 sequence (P47871 26-477): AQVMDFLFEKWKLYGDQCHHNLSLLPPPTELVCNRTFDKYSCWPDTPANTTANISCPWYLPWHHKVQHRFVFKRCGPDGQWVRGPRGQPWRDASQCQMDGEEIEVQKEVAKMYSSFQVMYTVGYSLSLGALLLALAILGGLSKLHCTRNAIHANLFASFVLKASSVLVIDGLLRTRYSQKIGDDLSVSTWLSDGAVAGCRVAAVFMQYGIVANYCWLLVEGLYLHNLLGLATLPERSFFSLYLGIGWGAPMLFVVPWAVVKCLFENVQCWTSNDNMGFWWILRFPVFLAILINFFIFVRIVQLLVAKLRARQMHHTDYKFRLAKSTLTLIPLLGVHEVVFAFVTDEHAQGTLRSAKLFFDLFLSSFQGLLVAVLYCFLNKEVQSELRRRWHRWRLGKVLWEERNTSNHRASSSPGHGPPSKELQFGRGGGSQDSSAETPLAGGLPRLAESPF
Procedure, shortened: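 Cell pellets were lysed in hypotonic Tris buffer, pH 7.5, homogenized, and spun at low then high speed to give crude membranes. Ki was derived from the fitted IC50.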

human GIP receptor = target: T2, human GIP receptor (Homo sapiens, UniProt P48546); assay: [125I]-GIP binding (SPA), human GIP receptor; conditions: read-out: hGIPR Ki, nM (SEM, n)
T2 construct: expressed in transfected cells; crude membranes
T2 sequence (P48546 22-466): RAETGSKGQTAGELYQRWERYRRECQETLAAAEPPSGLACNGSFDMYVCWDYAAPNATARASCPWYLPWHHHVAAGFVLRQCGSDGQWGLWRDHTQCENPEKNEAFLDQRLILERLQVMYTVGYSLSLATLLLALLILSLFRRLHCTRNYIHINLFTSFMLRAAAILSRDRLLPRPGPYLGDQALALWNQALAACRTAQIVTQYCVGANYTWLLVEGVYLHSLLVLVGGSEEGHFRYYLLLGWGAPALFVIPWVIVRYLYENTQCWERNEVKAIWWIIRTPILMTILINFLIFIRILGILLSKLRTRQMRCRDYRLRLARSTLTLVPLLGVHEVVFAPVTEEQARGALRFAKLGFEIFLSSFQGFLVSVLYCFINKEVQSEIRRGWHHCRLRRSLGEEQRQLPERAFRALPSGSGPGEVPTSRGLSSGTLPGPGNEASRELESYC

[1] = target: human GLP-1 receptor (GLP-1R) (Homo sapiens, UniProt P43220); assay: cAMP pharmacological functional assay in presence of casein, hGLP-1R; format: cell-based; conditions: HEK293 cells expressing hGLP-1R, 0.1% Casein, geometric mean; read-out: hGLP1R cAMP Rel EC50 nM (SEM, n)
Sequence of human GLP-1 receptor (GLP-1R) (P43220 24-463): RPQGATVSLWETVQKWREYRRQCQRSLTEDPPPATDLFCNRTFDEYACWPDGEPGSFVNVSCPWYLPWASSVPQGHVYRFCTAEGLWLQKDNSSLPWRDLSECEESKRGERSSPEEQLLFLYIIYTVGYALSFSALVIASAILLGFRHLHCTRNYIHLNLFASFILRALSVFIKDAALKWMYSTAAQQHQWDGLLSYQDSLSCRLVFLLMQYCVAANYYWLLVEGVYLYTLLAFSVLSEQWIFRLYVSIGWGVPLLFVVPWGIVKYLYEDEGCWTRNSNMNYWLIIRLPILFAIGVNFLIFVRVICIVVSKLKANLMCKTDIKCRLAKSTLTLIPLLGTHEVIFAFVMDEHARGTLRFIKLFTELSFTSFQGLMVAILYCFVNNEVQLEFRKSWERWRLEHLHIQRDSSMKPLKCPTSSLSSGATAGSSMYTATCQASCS

[2] = target: T3, gastric inhibitory peptide receptor (GIPR) (Homo sapiens, UniProt P48546); assay: cAMP pharmacological functional assay in presence of casein, hGIPR; format: cell-based; conditions: HEK293 cells expressing hGIPR, 0.1% Casein, geometric mean; read-out: hGIPR cAMP Rel EC50 nM (SEM, n)
T3 sequence (P48546 22-466): T2 sequence (P48546 22-466)

human GLP-1R [3] = target: T4, human GLP-1R (Homo sapiens, UniProt P43220); assay: [125I]-GLP-1 binding (SPA), human GLP-1 receptor; set-up: expressed in transfected cells; crude membranes; conditions: read-out: hGLP1R Ki, (nM) (SEM, n)
T4 sequence (P43220 24-463): as above
Procedure, shortened: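 Crude-membrane binding assay; one membrane prep included 1 mM MgCl2 and 25 units/ml DNAse I during lysis. Assay buffer at pH 7.4 contains 0.1% (w/v) bacitracin and 0.003% (w/v) TWEEN-20. Ki is reported as geometric mean.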

human GLP-1R [4] = target: T4, human GLP-1R; assay: GLP-1R HEK293 cell membrane [35S]GTPγS binding assay; format: biochemical; set-up: expressed in transfected cells; host or cells: HEK293 cells expressing human GLP-1R; membranes; conditions: HEK293 cell membranes expressing human GLP-1R, [35S]GTPγS binding; read-out: hGLP1R GTPgS Rel EC50 nM (SEM, n)
Procedure: The GLP-1 receptor is a G-protein coupled receptor that increases GTP-bound Gas upon ligand induced receptor activation. The potency of peptides to stimulate-GLP-1R induced activation of Gac is determined using preparations of purified membranes from HEK293 cells expressing the human GLP-1R. […] The test peptides are solubilized in DMSO and diluted in reaction buffer containing 5 μg of membrane in 20 mM HEPES pH 7.4, 50 mM NaCl, 5 mM MgCl2, 40 μg/ml saponin, 0.1% BSA, and […] ^35S-labeled GTPTS for 30 minutes at room temperature. Reactions are terminated by addition of 0.2% Nonidet β-40 detergent containing rabbit anti-Gas polyclonal antibody and 0.5 mg of anti-rabbit polyvinyltoluene beads. Mixtures are developed for 30 minutes, centrifuged at 80×g for 10 minutes, and counted for 1 minute/well using a MicroBeta TriLux instrument. Peptide concentration-response curves are fit to a four-parameter logistic model to calculate potency as an EC50.

SMILES | Ki (human Gcg receptor) [nM] | Ki (human GIP receptor) [nM] | EC50 [1] [nM] | EC50 [2] [nM] | Ki (human GLP-1R [3]) [nM] | EC50 (human GLP-1R [4]) [nM]
CC[C@H](C)[C@H](NC(=O)[C@H](CC(C)C)NC(=O)[C@H](Cc1ccc(O)cc1)NC(=O)[C@H](CCC(=O)O)NC(=O)[C@@H](NC(=O)[C@H](Cc1ccccc1)NC(=O)[C@H](C)NC(=O)C(C)(C)NC(=O)[C@H](CCC(N)=O)NC(=O)[C@H](C)NC(=O)[C@H](CCCCNC(=O)COCCOCCNC(=O)COCCOCCNC(=O)CC[C@H](NC(=O)CCCCCCCCCCCCCCCCC(=O)O)C(=O)O)NC(=O)[C@H](CCCCN)NC(=O)[C@H](CC(=O)O)NC(=O)[C@H](CC(C)C)NC(=O)[C@](C)(CC(C)C)NC(=O)[C@@H](NC(=O)[C@H](CO)NC(=O)[C@H](Cc1ccc(O)cc1)NC(=O)[C@H](CC(=O)O)NC(=O)[C@H](CO)NC(=O)[C@@H](NC(=O)[C@H](Cc1ccccc1)NC(=O)[C@@H](NC(=O)CNC(=O)[C@H](CCC(=O)O)NC(=O)C(C)(C)NC(=O)[C@@H](N)Cc1ccc(O)cc1)[C@@H](C)O)[C@@H](C)O)[C@@H](C)CC)[C@@H](C)CC)C(=O)N[C@@H](C)C(=O)NCC(=O)NCC(=O)N1CCC[C@H]1C(=O)N[C@@H](CO)C(=O)N[C@@H](CO)C(=O)NCC(N)=O [Example 305] (H-Y[Aib]EGTFTSDYSI[αMeL]LDKK([AEEA-AEEA-γGlu-C18 diacid])AQ[Aib]AFIEYLIAGGPSSG-NH2) | 352 | 0.025 | 0.107 | 0.0225 | 0.83 | 0.389
CC[C@H](C)[C@H](NC(=O)[C@H](CC(C)C)NC(=O)[C@H](Cc1ccc(O)cc1)NC(=O)[C@H](CCC(=O)O)NC(=O)[C@@H](NC(=O)[C@H](Cc1ccccc1)NC(=O)[C@H](CCC(=O)O)NC(=O)C(C)(C)NC(=O)[C@H](CCC(N)=O)NC(=O)[C@H](C)NC(=O)[C@H](CCCCNC(=O)COCCOCCNC(=O)COCCOCCNC(=O)CC[C@H](NC(=O)CCCCCCCCCCCCCCCCC(=O)O)C(=O)O)NC(=O)[C@H](CCCCN)NC(=O)[C@H](CC(=O)O)NC(=O)[C@H](CC(C)C)NC(=O)[C@](C)(CC(C)C)NC(=O)[C@@H](NC(=O)[C@H](CO)NC(=O)[C@H](Cc1ccc(O)cc1)NC(=O)[C@H](CC(=O)O)NC(=O)[C@H](CO)NC(=O)[C@@H](NC(=O)[C@H](Cc1ccccc1)NC(=O)[C@@H](NC(=O)CNC(=O)[C@H](CCC(=O)O)NC(=O)C(C)(C)NC(=O)[C@@H](N)Cc1ccc(O)cc1)[C@@H](C)O)[C@@H](C)O)[C@@H](C)CC)[C@@H](C)CC)C(=O)N[C@@H](C)C(=O)NCC(=O)NCC(=O)N1CCC[C@H]1C(=O)N[C@@H](CO)C(=O)N[C@@H](CO)C(=O)NCC(N)=O [Example 306] (H-Y[Aib]EGTFTSDYSI[αMeL]LDKK([AEEA-AEEA-γGlu-C18 diacid])AQ[Aib]EFIEYLIAGGPSSG-NH2) | > 1040 | 0.0349 | 0.0711 | 0.0191 | 2.86 | 0.378
CC[C@H](C)[C@H](NC(=O)[C@H](CC(C)C)NC(=O)[C@H](Cc1ccc(O)cc1)NC(=O)[C@H](CCC(=O)O)NC(=O)[C@@H](NC(=O)[C@H](Cc1ccccc1)NC(=O)[C@H](C)NC(=O)C(C)(C)NC(=O)[C@H](CCC(N)=O)NC(=O)[C@H](C)NC(=O)[C@H](CCCCNC(=O)COCCOCCNC(=O)COCCOCCNC(=O)CC[C@H](NC(=O)CCCCCCCCCCCCCCCCCCC(=O)O)C(=O)O)NC(=O)[C@H](CCCCN)NC(=O)[C@H](CC(=O)O)NC(=O)[C@H](CC(C)C)NC(=O)[C@H](CC(C)C)NC(=O)[C@@H](NC(=O)[C@H](CO)NC(=O)[C@H](Cc1ccc(O)cc1)NC(=O)[C@H](CC(=O)O)NC(=O)[C@H](CO)NC(=O)[C@@H](NC(=O)[C@H](Cc1ccccc1)NC(=O)[C@@H](NC(=O)CNC(=O)[C@H](CCC(=O)O)NC(=O)C(C)(C)NC(=O)[C@@H](N)Cc1ccc(O)cc1)[C@@H](C)O)[C@@H](C)O)[C@@H](C)CC)[C@@H](C)CC)C(=O)N[C@@H](C)C(=O)NCC(=O)NCC(=O)N1CCC[C@H]1C(=O)N[C@@H](CO)C(=O)N[C@@H](CO)C(=O)NCC(N)=O [Example 317] (H-Y[Aib]EGTFTSDYSILLDKK([AEEA-AEEA-γGlu-C20 diacid])AQ[Aib]AFIEYLIAGGPSSG-NH2; N-terminus assumed) | 253 | 0.0215 | 0.172 | 0.0948 | 2.63 | 0.536
CC[C@H](C)[C@H](NC(=O)[C@H](CC(C)C)NC(=O)[C@H](Cc1ccc(O)cc1)NC(=O)[C@H](CCC(=O)O)NC(=O)[C@@H](NC(=O)[C@H](Cc1ccccc1)NC(=O)[C@H](CCC(=O)O)NC(=O)C(C)(C)NC(=O)[C@H](CCC(N)=O)NC(=O)[C@H](C)NC(=O)[C@H](CCCCNC(=O)COCCOCCNC(=O)COCCOCCNC(=O)CC[C@H](NC(=O)CCCCCCCCCCCCCCCCCCC(=O)O)C(=O)O)NC(=O)[C@H](CCCCN)NC(=O)[C@H](CC(=O)O)NC(=O)[C@H](CC(C)C)NC(=O)[C@H](CC(C)C)NC(=O)[C@@H](NC(=O)[C@H](CO)NC(=O)[C@H](Cc1ccc(O)cc1)NC(=O)[C@H](CC(=O)O)NC(=O)[C@H](CO)NC(=O)[C@@H](NC(=O)[C@H](Cc1ccccc1)NC(=O)[C@@H](NC(=O)CNC(=O)[C@H](CCC(=O)O)NC(=O)C(C)(C)NC(=O)[C@@H](N)Cc1ccc(O)cc1)[C@@H](C)O)[C@@H](C)O)[C@@H](C)CC)[C@@H](C)CC)C(=O)N[C@@H](C)C(=O)NCC(=O)NCC(=O)N1CCC[C@H]1C(=O)N[C@@H](CO)C(=O)N[C@@H](CO)C(=O)NCC(N)=O [Example 318] (H-Y[Aib]EGTFTSDYSILLDKK([AEEA-AEEA-γGlu-C20 diacid])AQ[Aib]EFIEYLIAGGPSSG-NH2; N-terminus assumed) | 730 | 0.0452 | 0.124 | 0.0547 | 7.52 | 0.415
CC[C@H](C)[C@H](NC(=O)[C@H](CC(C)C)NC(=O)[C@H](Cc1ccc(O)cc1)NC(=O)[C@H](CCC(=O)O)NC(=O)[C@@H](NC(=O)[C@H](Cc1ccccc1)NC(=O)[C@H](CCC(=O)O)NC(=O)C(C)(C)NC(=O)[C@H](CCC(N)=O)NC(=O)[C@H](C)NC(=O)[C@H](CCCCNC(=O)COCCOCCNC(=O)COCCOCCNC(=O)CC[C@H](NC(=O)CCCCCCCCCCCCCCCCCCC(=O)O)C(=O)O)NC(=O)[C@H](CCCCN)NC(=O)[C@H](CC(=O)O)NC(=O)[C@H](CC(C)C)NC(=O)[C@H](CC(C)C)NC(=O)[C@@H](NC(=O)[C@H](CO)NC(=O)[C@H](Cc1ccc(O)cc1)NC(=O)[C@H](CC(=O)O)NC(=O)[C@H](CO)NC(=O)[C@@H](NC(=O)[C@H](Cc1ccccc1)NC(=O)[C@@H](NC(=O)CNC(=O)[C@H](CCC(=O)O)NC(=O)C(C)(C)NC(=O)[C@@H](N)Cc1ccc(O)cc1)[C@@H](C)O)[C@@H](C)O)[C@@H](C)CC)[C@@H](C)CC)C(=O)N[C@@H](C)C(=O)NCC(=O)NCC(=O)N1CCC[C@H]1C(=O)N[C@@H](CO)C(=O)N[C@@H](CO)C(=O)NCC(=O)N[C@@H](C)C(=O)N1CCC[C@H]1C(=O)N1CCC[C@H]1C(=O)N1CCC[C@H]1C(=O)N[C@@H](CO)C(N)=O [Example 319] (H-Y[Aib]EGTFTSDYSILLDKK([AEEA-AEEA-γGlu-C20 diacid])AQ[Aib]EFIEYLIAGGPSSGAPPPS-NH2) | > 984 | 0.0349 | 0.113 | 0.054 | 3.61 | 0.657
